From US20090016989A1, “ANTIBODIES TO HUMAN SOMATOSTATIN RECEPTOR AND METHODS OF USE” (priority 2007, published 2009)

How the values were obtained:
BON cells [1] = assay: Guava Nexin apoptosis assay (Annexin V / 7-AAD); assay type: cell-based, human; conditions: 6 hours after treatment with staurosporin, % of Total
Protocol: Cells were then switched to growth media without FBS and allowed to grow for another 24 hours before applying treatments. Samples were collected and counted in accordance with Guava Technologies' Viacount Flex (Cat#4500-0110) instructions. At the end of each antibody treatment, cells were dissociated from the plate using 1× trypsin-EDTA (Invitrogen Cat#2520). […] Next, phosphate buffer solution (D-PBS) (Invitrogen Cat#14190-144) (Invitrogen) was used as the exchange buffer to resuspend the cell pellet. […] Detection was achieved by using Guava PCA96 instrument and data was analysed by using Guava Nexin software module as (Cat#0500-0250). […] Following the protocol for the Guava Nexin™ assay (Guava Technologies), two different dyes were used to stain for cells undergoing apoptosis: 7-AAD stains for dead and late apoptosis cells (upper right quadrant of each graph in FIG. 10), and Annexin V stains for cells undergoing apoptosis from the early stage (lower right quadrant of each graph in FIG. 10). […] Once every 24 hours for 72 hours (FIGS. 10B, 10C and 10D), cells were collected and tested for apoptosis status using the Guava Nexin™ assay (Guava Technologies).

BON cells [2] = assay: Guava Nexin apoptosis assay (Annexin V / 7-AAD); assay type: cell-based, human; conditions: 6 hours after treatment with staurosporin, % of Total; remark: listed apart in the source

## CN[C@@H]1C[C@H]2O[C@@](C)([C@@H]1OC)n1c3ccccc3c3c4c(c5c6ccccc6n2c5c31)C(=O)NC4 [Staurosporine]
BON cells [1]
  Early apoptotic cells (Lower Right Quadrant): 28.7%
  Late apoptotic cells (Upper Right Quadrant): 23.7%
  Live, healthy cells (Lower Left Quadrant): 46.7%
BON cells [2]
  Annexin V+: 52.3%
  Nuclear Debris (Upper Left Quadrant): 1.0%
